Experiments:
Caco-2 cell monolayer = experiment: ANC transmembrane transport across Caco-2 cell monolayer (Transwell, HPLC); type: in vitro ADME
Description: In this work, we utilized and slightly modified a procedure from Zou et al. to perform ANC transport studies. Firstly, ANC commercial powder was pre-dissolved in ultra-pure water and phosphate-buffered solution (PBS, pH7.4) was used for FA-g-CS dissolving. Then, pre-warmed phosphate-buffered saline (PBS) was used to wash and equilibrate the Transwell. Subsequently, the transport buffer containing ANC was added to the basolateral (1.5 mL) or the apical (0.5 mL) side of the inserts, while the corresponding volume of transport buffer was added to the receiving container. Samples measuring 50 uL were taken after 1, 2, 3, and 4 h incubation, and the same amount of pre-warmed PBS was replenished immediately. The samples were treated with HCl and frozen until HPLC analysis. The ANC-absorption-enhancing studies with FA-g-CS across Caco-2 cells were conducted using a transport buffer containing FA-g-CS+ANC instead of ANC alone.
Transport efficiency (A→B (%)) was calculated according to the following formula: (concentrations of the compound at basolateral side overtime)/(concentrations of the compound at the apical side at zero hours) × 100. The apparent permeability coefficient (Papp) was defined as follows: Papp = (dQ/dt)(1/[AC0]); here, A represents the surface area of the Transwell, C0 represents the compound concentration added in the apical side, and the transport rate of the compound over time is denoted by dQ/dt.

GLUT2 [1] = experiment: Immunofluorescence staining of GLUT2 in Caco-2 cells; type: cell-based; details: ANC 2.3 × 10^−4 mg/mL or FA-g-CS 9 × 10^−5 mg/mL, 48 h
Description: Immunofluorescence staining was carried out to further validate the effect of FA-g-CS/ANC on the expression of sGLT1 and GLUT2. In short, Caco-2 cells were transfected with NC siRNA (negative control), GLUT2-siRNA-2, and sGLT1-siRNA-3; then, they were seeded onto a 4-well slide and chamber (Watson, Kobe, Japan). Subsequently, cells were incubated with 0.09 µg/mL FA-g-CS, 0.23 µg/mL ANC, or their combination at 37 °C for 48 h. Then, they were fixed with 4% paraformaldehyde for 10 min and soaked with 0.5% Triton X-100 in PBS for 15 min. In this study, goat serum was used to avoid nonspecific binding at room temperature. After 30 min of treatments, the cells were incubated with the primary antibody ([…], Santa Cruz Biotechnology, with 1:100 dilutions) at 4 °C overnight, followed by incubation with the secondary antibody (goat anti-mouse IgG1-HRP, Santa Cruz Biotechnology, Shanghai, China, with 1:100 dilutions) for 1 h at 20–37 °C. Nuclear staining was performed with DAPI, and the images were captured with a fluorescence microscope (BX53, Olympus, Tokyo, Japan).

GLUT2 [2] = experiment: Western blot of GLUT2 expression in Caco-2 cells after siRNA transfection and incubation; type: cell-based
Description: Firstly, the cells were washed twice with 1 mL of cold PBS and then lysed in 100 μL of ice-cold RIPA lysis buffer. Western blot analysis was performed following the previous method with minor modifications. Briefly, total protein samples were resolved by SDS-PAGE (8%, 10%, or 12%) and transferred to PVDF membranes blocked with 5% nonfat milk powder in TBST; these were then incubated with 8 μg of primary antibody at a dilution of 1:1000/500 (v/v) overnight at 4 °C. Detection was performed with 10 mL of ECL and oxidizing reagent and equal amounts of HRP-conjugated anti-mouse at a 1:5000 (v/v) dilution rate. To further illustrate the effect of FA-g-CS on the transmembrane transport of ANC, the Caco-2 cells were transfected with siRNA targeted to sGLT1 and GLUT2 (the optimal interference fragments screened by previous tests) and then incubated with FA-g-CS, ANC, or their combinations. Finally, the expressions of sGLT1 and GLUT2 were detected using a Western blot assay.

Question: For `OC[C@H]1O[C@@H](Oc2cc3c(O)cc(O)cc3[o+]c2-c2ccc(O)c(O)c2)[C@H](O)[C@@H](O)[C@@H]1O` [ANC, Cyanidin-3-glucoside], which “Concentrations of ANC at the Basolateral Side” value (shortened to “Concentrations of ANC”) (Caco-2 cell monolayer; apical ANC 0.05 ×10^−3 mg/mL, without FA-g-CS co-treatment, 2 h) is on record?
Answer: 0.0003 ± 0.00001 b ×10^−3 mg/mL

Question: What about the “Concentrations of ANC” value (Caco-2 cell monolayer; apical ANC 0.05 ×10^−3 mg/mL, without FA-g-CS co-treatment, 3 h) of the same compound?
Answer: 0.0004 ± 0.00001 c ×10^−3 mg/mL

Question: And the “Concentrations of ANC” value (Caco-2 cell monolayer; apical ANC 0.05 ×10^−3 mg/mL, without FA-g-CS co-treatment, 4 h)?
Answer: 0.0004 ± 0.00001 c ×10^−3 mg/mL

Question: What about the “Concentrations of ANC” value (Caco-2 cell monolayer; apical ANC 0.10 ×10^−3 mg/mL, in presence of 0.05 × 10^−3 mg/mL FA-g-CS, 1 h) of the same compound?
Answer: 0.0010 ± 0.0001 bc ×10^−3 mg/mL

Question: And the “Concentrations of ANC” value (Caco-2 cell monolayer; apical ANC 0.10 ×10^−3 mg/mL, in presence of 0.05 × 10^−3 mg/mL FA-g-CS, 2 h)?
Answer: 0.0010 ± 0.0002 bc ×10^−3 mg/mL

Question: What about the “Concentrations of ANC” value (Caco-2 cell monolayer; apical ANC 0.10 ×10^−3 mg/mL, in presence of 0.05 × 10^−3 mg/mL FA-g-CS, 3 h) of the same compound?
Answer: 0.0019 ± 0.0001 d ×10^−3 mg/mL

Question: What about the “Concentrations of ANC” value (Caco-2 cell monolayer; apical ANC 0.10 ×10^−3 mg/mL, in presence of 0.05 × 10^−3 mg/mL FA-g-CS, 4 h) of the same compound?
Answer: 0.0021 ± 0.0002 d ×10^−3 mg/mL

Question: And the “Concentrations of ANC” value (Caco-2 cell monolayer; apical ANC 0.10 ×10^−3 mg/mL, without FA-g-CS co-treatment, 1 h)?
Answer: 0.0004 ± 0.00002 a ×10^−3 mg/mL

Question: And the “Concentrations of ANC” value (Caco-2 cell monolayer; apical ANC 0.10 ×10^−3 mg/mL, without FA-g-CS co-treatment, 2 h)?
Answer: 0.0008 ± 0.00001 b ×10^−3 mg/mL

Question: What about the “Concentrations of ANC” value (Caco-2 cell monolayer; apical ANC 0.10 ×10^−3 mg/mL, without FA-g-CS co-treatment, 3 h) of the same compound?
Answer: 0.0009 ± 0.00001 b ×10^−3 mg/mL

Question: What about the “Concentrations of ANC” value (Caco-2 cell monolayer; apical ANC 0.10 ×10^−3 mg/mL, without FA-g-CS co-treatment, 4 h) of the same compound?
Answer: 0.0012 ± 0.00002 c ×10^−3 mg/mL

Question: What about the “Concentrations of ANC” value (Caco-2 cell monolayer; apical ANC 0.15 ×10^−3 mg/mL, in presence of 0.05 × 10^−3 mg/mL FA-g-CS, 1 h) of the same compound?
Answer: 0.0017 ± 0.0002 c ×10^−3 mg/mL

Question: And the “Concentrations of ANC” value (Caco-2 cell monolayer; apical ANC 0.15 ×10^−3 mg/mL, in presence of 0.05 × 10^−3 mg/mL FA-g-CS, 2 h)?
Answer: 0.0025 ± 0.0002 d ×10^−3 mg/mL

Question: What about the “Concentrations of ANC” value (Caco-2 cell monolayer; apical ANC 0.15 ×10^−3 mg/mL, in presence of 0.05 × 10^−3 mg/mL FA-g-CS, 3 h) of the same compound?
Answer: 0.0030 ± 0.0001 e ×10^−3 mg/mL

Question: What about the “Concentrations of ANC” value (Caco-2 cell monolayer; apical ANC 0.15 ×10^−3 mg/mL, in presence of 0.05 × 10^−3 mg/mL FA-g-CS, 4 h) of the same compound?
Answer: 0.0035 ± 0.0001 f ×10^−3 mg/mL

Question: What about the “Concentrations of ANC” value (Caco-2 cell monolayer; apical ANC 0.15 ×10^−3 mg/mL, without FA-g-CS co-treatment, 1 h) of the same compound?
Answer: 0.0006 ± 0.00001 a ×10^−3 mg/mL

Question: What about the “Concentrations of ANC” value (Caco-2 cell monolayer; apical ANC 0.15 ×10^−3 mg/mL, without FA-g-CS co-treatment, 2 h) of the same compound?
Answer: 0.0009 ± 0.00002 b ×10^−3 mg/mL

Question: What about the “Concentrations of ANC” value (Caco-2 cell monolayer; apical ANC 0.15 ×10^−3 mg/mL, without FA-g-CS co-treatment, 3 h) of the same compound?
Answer: 0.0010 ± 0.0003 b ×10^−3 mg/mL

Question: What about the “Concentrations of ANC” value (Caco-2 cell monolayer; apical ANC 0.15 ×10^−3 mg/mL, without FA-g-CS co-treatment, 4 h) of the same compound?
Answer: 0.0018 ± 0.00001 c ×10^−3 mg/mL

Question: And the “Concentrations of ANC” value (Caco-2 cell monolayer; apical ANC 0.20 ×10^−3 mg/mL, in presence of 0.05 × 10^−3 mg/mL FA-g-CS, 1 h)?
Answer: 0.0020 ± 0.0001 c ×10^−3 mg/mL

Question: And the “Concentrations of ANC” value (Caco-2 cell monolayer; apical ANC 0.20 ×10^−3 mg/mL, in presence of 0.05 × 10^−3 mg/mL FA-g-CS, 2 h)?
Answer: 0.0023 ± 0.0002 d ×10^−3 mg/mL

Question: What about the “Concentrations of ANC” value (Caco-2 cell monolayer; apical ANC 0.20 ×10^−3 mg/mL, in presence of 0.05 × 10^−3 mg/mL FA-g-CS, 3 h) of the same compound?
Answer: 0.0032 ± 0.0001 e ×10^−3 mg/mL

Question: What about the “Concentrations of ANC” value (Caco-2 cell monolayer; apical ANC 0.20 ×10^−3 mg/mL, in presence of 0.05 × 10^−3 mg/mL FA-g-CS, 4 h) of the same compound?
Answer: 0.0033 ± 0.0001 e ×10^−3 mg/mL

Question: What about the “Concentrations of ANC” value (Caco-2 cell monolayer; apical ANC 0.20 ×10^−3 mg/mL, without FA-g-CS co-treatment, 1 h) of the same compound?
Answer: 0.0007 ± 0.00001 a ×10^−3 mg/mL

Question: What about the “Concentrations of ANC” value (Caco-2 cell monolayer; apical ANC 0.20 ×10^−3 mg/mL, without FA-g-CS co-treatment, 2 h) of the same compound?
Answer: 0.001 ± 0.0002 b ×10^−3 mg/mL

Question: And the “Concentrations of ANC” value (Caco-2 cell monolayer; apical ANC 0.20 ×10^−3 mg/mL, without FA-g-CS co-treatment, 3 h)?
Answer: 0.0012 ± 0.0001 b ×10^−3 mg/mL

Question: And the “Concentrations of ANC” value (Caco-2 cell monolayer; apical ANC 0.20 ×10^−3 mg/mL, without FA-g-CS co-treatment, 4 h)?
Answer: 0.0019 ± 0.0001 c ×10^−3 mg/mL

Question: And the “protein level of GLUT2 (immunofluorescence) compared with the control cells” value (GLUT2 [1])?
Answer: increased

Question: And the “expression of GLUT2 compared with the blank” value (GLUT2 [2]; cells treated with nonrelated and scrambled siRNA)?
Answer: significantly elevated

Question: And the “expression level of GLUT2 compared with the blank control” value (GLUT2 [2]; cells treated with siRNA transfection)?
Answer: significantly increased

Question: And the “increased GLUT2 expression” value (GLUT2 [2]; siRNA-transfected Caco-2 cells incubated with compounds (abstract))?
Answer: < 60%
